Common to all, as to assay: inhibition of tumour cell growth, NCI panel, 48 h
For assay [1], the system named is HOP-62 NSCLC.
Assay [2] has as its system SR leukemia.
Assay [3] deals with SF-539 CNS.
Assay [4] concerns OVCAR-4 ovarian.
The test system of assay [5] is HOP-92 NSCLC.
Assay [6] deals with NCI-H460 lung.
Assay [7] deals with M14 melanoma.
In assay [8] the test system is UACC-257 melanoma.
The subject of assay [9] is HCC-2998 colon.
Assay [10] concerns CCRF-CEM leukemia.
The subject of assay [11] is SF-295 CNS.
Assay [12] relates to HCT-116 colon.
Assay [13] has as its system EKVX NSCLC.
Assay [14] deals with U251 CNS.
For assay [15], the system named is HCT-15 colon.
Assay [16] concerns IGROV1 ovarian.
For assay [17], the system named is NCI-H23 lung.
The test system of assay [18] is LOX IMVI melanoma.
Assay [19] concerns NCI-H522 lung.

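Compound exposure: 48 hours, 5 concentrations, 96-well plates. GI50 marks 50% less growth. TGI: concentration producing complete growth inhibition.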

On to `COc1cc2c(cc1OC)C1(c3ccccc3)CN(C2)Cc2cc(OC)c(OC)cc21`, for which the TGI was more than 100 µM in assay [1]; 32.2 µM in [2]; 41.9 µM in [3]; 77.6 µM in assay [4]; more than 100 µM in [5]; more than 100 µM in assay [6]. Also, the TGI in assay [7] was 59.6 µM; in assay [8] it was more than 100 µM; in [9], 50.1 µM; in assay [10], 61.4 µM; in assay [11], more than 100 µM; in [12], more than 100 µM. Besides, the TGI was more than 100 µM in [13]; 54.6 µM in assay [14]; more than 100 µM in [15]; more than 100 µM in [16]; 68.3 µM in assay [17]; more than 100 µM in [18]. Moreover, the TGI in assay [19] was more than 100 µM.

Regarding `CC1=CCC[C@@H]2[C@@](C)(Cc3cc(O)ccc3O)[C@H](C)CC[C@@]12C`, the TGI was found to be 22.1 µM in assay [1]; 12.6 µM in [2]; 18.4 µM in assay [3]; 25.7 µM in assay [4]; 15.2 µM in assay [5]; 22.4 µM in assay [6]. Further, the TGI turned out to be 15.7 µM in [7]; 26.2 µM in assay [8]; 22.5 µM in [9]; 15.1 µM in [10]; 20 µM in assay [11]; 18.8 µM in assay [12]. Moreover, the TGI in assay [13] turned out to be 20.3 µM; in assay [14], 15.9 µM; in [15] it was 16 µM; in assay [16], 18.2 µM; in assay [17], 14.1 µM; in assay [18], 17.7 µM. The molecule also had a TGI in assay [19] of 14.1 µM.

With `CC1OC(OC2C(O)COC(OC3C(C)OC(OC4C(OC(=O)[C@]56CCC(C)(C)C[C@@H]5C5=CCC7[C@@]8(C)C[C@H](O)[C@H](OC9OC(CO)C(O)C(OC%10OC(CO)C(O)C(O)C%10O)C9O)[C@@](C)(CO)[C@@H]8CC[C@@]7(C)[C@]5(C)CC6)OCC(O)C4O)C(O)C3OC3OCC(O)C(O)C3O)C2O)C(O)C(O)C1O` (some centres not stated), the TGI was found to be 20.3 µM in assay [1]; 27 µM in [2]; 32.1 µM in assay [3]; 29.8 µM in assay [4]; 31.1 µM in assay [5]; 34.8 µM in assay [6]. The TGI in [7] worked out at 3.58 µM; in assay [8], 16.8 µM; in [9], 4.44 µM; in assay [10], 25.2 µM; in assay [11], 9.81 µM; in [12] it was 23.7 µM. Besides, the TGI is 15.6 µM in assay [13]; 20.1 µM in [14]; 28.2 µM in assay [15]; 24.5 µM in assay [16]; 10.4 µM in assay [17]; 29.6 µM in assay [18]. Besides, in assay [19], the TGI was 26.4 µM.

As for `CC(=O)Nc1cc2c(cc1O)CC[C@@H]1[C@@H]2CC[C@]2(C)[C@@H](O)CC[C@@H]12`, the TGI in assay [1], in [2], in assay [3], in [4], in assay [5] and in assay [6] was more than 100 µM throughout. In addition, the TGI was more than 100 µM in assay [7]; more than 100 µM in assay [8]; 82.4 µM in assay [9]; more than 100 µM in assay [10]; more than 100 µM in assay [11]; more than 100 µM in [12]. Besides, the TGI is more than 100 µM in [13]; more than 100 µM in [14]; 54.5 µM in assay [15]; more than 100 µM in [16]; more than 100 µM in [17]; more than 100 µM in [18]. In addition, the TGI in assay [19] is 81.5 µM. Also, the GI50 in assay [12] is 39.8 µM.

Turning to `O=c1cc(-c2ccccc2)oc2ccc(Oc3nnnn3-c3ccccc3)cc12`, the TGI in [1] was more than 82.3 µM; in assay [2], more than 100 µM; in [3], more than 86.8 µM; in assay [4] it was more than 100 µM; in [5], 58.1 µM; in [6], more than 100 µM. Further, the TGI is more than 100 µM in assay [7]; more than 100 µM in [8]; more than 100 µM in assay [9]; more than 100 µM in assay [10]; more than 79.9 µM in [11]; more than 100 µM in assay [12]. In addition, the TGI in assay [13] was more than 100 µM; in assay [14], more than 74.7 µM; in [15], more than 100 µM; in assay [16] it was more than 100 µM; in [17] it was more than 93.2 µM; in assay [18], more than 100 µM. Further, the TGI in [19] was more than 100 µM.

Take `Cc1ccc2c(c1)[nH]c(=S)n2C=C1C(=O)CC(C)(C)CC1=O`: the TGI in assay [1], in assay [2], in assay [3], in assay [4], in assay [5] and in assay [6] was more than 100 µM each time. The TGI in assay [7], in assay [8], in [9], in assay [10], in assay [11] and in assay [12] was more than 100 µM throughout. The TGI in assay [13], in assay [14], in assay [15], in assay [16], in assay [17] and in assay [18] was more than 100 µM in each case. In [19], this molecule displayed a TGI of more than 100 µM.

Take `Oc1c(-c2ccccc2)sc2ccccc12`: the TGI in [1] is 45.8 µM; in [2] it was 34.9 µM; in [3], more than 100 µM; in [4], more than 100 µM; in assay [5], 57.7 µM; in [6] it was 51.2 µM. Further, the TGI came out at 50.6 µM in assay [7]; 98.9 µM in assay [8]; 39 µM in [9]; 62.5 µM in assay [10]; 45.7 µM in assay [11]; 71 µM in assay [12]. Also, the TGI in assay [13] was 86.6 µM; in assay [14], more than 100 µM; in assay [15] it was more than 100 µM; in assay [16], more than 100 µM; in assay [17], 77.5 µM; in [18], 32.3 µM. In assay [19], the TGI was more than 100 µM.

Take `Cc1c[nH]c(C(=O)O)c1-c1ccc2c(-c3ccccc3)nc3ccccc3n12`: the TGI in assay [1] was 46.4 µM; in [2] it was 66.2 µM; in assay [3] it was 49.3 µM; in [4], more than 100 µM; in assay [5] it was more than 100 µM; in assay [6], more than 100 µM. The TGI in assay [7] is more than 100 µM; in assay [8], more than 100 µM; in assay [9], 56.9 µM; in [10], more than 100 µM; in [11], 71.1 µM; in assay [12], more than 100 µM. For the same molecule, the TGI in assay [13] was more than 100 µM; in assay [14], more than 100 µM; in assay [15], 94.1 µM; in assay [16] it was 77.8 µM; in assay [17], more than 100 µM; in [18], 63 µM. In [19], this molecule had a TGI of 60.6 µM.

As for `CC(=O)NCCc1c[nH]c2ccc(Cl)cc12`, the TGI in assay [1], in [2], in assay [3], in assay [4], in assay [5] and in assay [6] was more than 100 µM each time. The TGI in assay [7], in [8], in assay [9], in assay [10], in assay [11] and in [12] was more than 100 µM in each case. Besides, the TGI in assay [13], in assay [14], in assay [15], in [16], in [17] and in [18] was more than 100 µM throughout. Besides, the TGI in assay [19] was more than 100 µM.

On to `CCOC(=O)c1cccc([N+](=O)[O-])c1N`, for which the TGI in assay [1], in assay [2], in [3], in assay [4], in assay [5] and in assay [6] was more than 100 µM each time. Moreover, the TGI in [7], in assay [8], in assay [9], in assay [10], in assay [11] and in [12] was more than 100 µM each time. For the same molecule, the TGI in assay [13], in assay [14], in assay [15], in [16], in assay [17] and in assay [18] was more than 100 µM each time. Moreover, the TGI in [19] was more than 100 µM.

Consider `CN(C)CCCNc1nnc(NCCCN(C)C)c2c(=O)c3sccc3[nH]c12`, for which the TGI was more than 100 µM in assay [1]; more than 30.5 µM in [2]; 30.1 µM in assay [3]; 23.2 µM in assay [4]; more than 100 µM in assay [5]; 20.7 µM in [6]. The TGI is 23.9 µM in assay [7]; more than 100 µM in [8]; 23.7 µM in assay [9]; more than 50.2 µM in [10]; more than 54 µM in assay [11]; more than 33.8 µM in assay [12]. Moreover, the TGI in assay [13] is 65.6 µM; in assay [14], more than 100 µM; in assay [15] it was more than 91.5 µM; in assay [16], more than 100 µM; in assay [17], more than 100 µM; in [18], 54.4 µM. In [19], this molecule yielded a TGI of 17.3 µM.

For `CCCN(CCCCN1C(=O)c2ccccc2C1=O)CC1COc2ccccc2O1` (configuration not stated), the TGI in [1] is more than 100 µM; in assay [2], 77.6 µM; in assay [3] it was more than 100 µM; in [4], more than 100 µM; in assay [5] it was more than 100 µM; in assay [6] it was more than 100 µM. Besides, the TGI in [7] is more than 100 µM; in assay [8] it was more than 100 µM; in assay [9] it was more than 100 µM; in assay [10] it was 88.8 µM; in assay [11], more than 100 µM; in assay [12], more than 100 µM. For the same molecule, the TGI in [13], in assay [14], in assay [15], in [16], in assay [17] and in assay [18] was more than 100 µM each time. Further, the TGI in assay [19] was more than 100 µM.

In the case of `Cc1cc2c(cc1C)[n+](=O)c(C(=O)N1CCN(c3ccc([N+](=O)[O-])cc3)CC1)c(C)n2[O-]`, the TGI in assay [1] was 29.4 µM; in assay [2], more than 100 µM; in assay [3], 35.4 µM; in assay [4], more than 100 µM; in assay [5], more than 100 µM; in assay [6] it was more than 100 µM. In addition, the TGI in assay [7] is more than 100 µM; in assay [8], more than 100 µM; in assay [9] it was more than 100 µM; in assay [10], more than 100 µM; in assay [11], 31.6 µM; in assay [12], more than 100 µM. Moreover, the TGI in [13] was 87.4 µM; in [14], 41.3 µM; in assay [15] it was more than 100 µM; in [16], 87.7 µM; in assay [17] it was more than 100 µM; in assay [18], more than 100 µM. Moreover, the TGI in assay [19] is more than 100 µM.

For `COc1cc(C(N)=O)cc(NC(=O)/C=C/c2ccccc2)c1OC`, the TGI in [1], in [2], in assay [3], in assay [4], in assay [5] and in assay [6] was more than 100 µM each time. Besides, the TGI in assay [7], in assay [8], in [9], in [10], in assay [11] and in assay [12] was more than 100 µM each time. For the same molecule, the TGI in assay [13], in assay [14], in assay [15], in assay [16], in assay [17] and in [18] was more than 100 µM each time. In assay [19], this molecule gave a TGI of more than 100 µM.

For the origin of these results see PubChem BioAssay (NCI).
